Counter-ions that a name gives are not always drawn.
Legend:
Format in all cases: cell-based
[1] = molecular target: T1, Arg261Gln (R261Q) PAH (Homo sapiens (Human), UniProt P00439, R261Q); test: Phenylalanine hydroxylase enzyme activity assay in transfected COS7 cells; settings: compound 10 μM (sepiapterin 5 μM), 48 h
Protocol: (§1) 2. Phenylalanine Hydroxylase Enzyme Activity Assay
(§2) This assay was completed in cell culture to analyze the enzyme activity in the presence of compounds. In brief, wild-type or Arg261Gln PAH constructs were transiently expressed in COS7-cells in a 96 well format reflecting the PAH genotype (COS7 cell line has no endogenous PAH). Cells were treated with the compounds at a final concentration of 10 μM and the enzyme activity of PAH was analyzed 48 h after transfection. The effect of the compounds on the residual enzyme activity was determined in comparison to non-treated cells (NCC, only compound solvent final 0.1%). To normalize the cellular background signal non transfected cells (NT control) were treated with compound or solvent equally for 48 h. As a positive control we used sepiapterin, a stable precursor of BH4 (CAS 17094-01-8), stabilized in 100 mM DTT, in a final concentration of 5 μM.
(§3) PAH activities were assayed at 25° C. as previously described (Gersting, S. W., J. Biol. Chem., 2010, 285(40), 30686-30697) with modifications. The standard mixture contained 22.35 mM NaHepes, pH 7.0, […] catalase, 10 μM ferrous ammonium sulphate, and 1 mM L-Phe (L-phenylalanine) final. Assay mixture and cell culture enzyme were pre-incubated for 5 min and the reaction was initiated by the addition of 75 μM BH4 (stabilized in 100 mM dithiothreitol) final, run for 60 min and stopped by acetic acid. The amount of L-tyrosine production was measured and quantified by HPLC, assayed as triplicates.
(§4) The effect of compound on PAH enzyme activity was calculated from triplicates as follows: first the background of the NT cells were subtracted from the transfected cells (treated or NCC) and then the percentage of treated (compound) versus NCC was determined. Enzyme activity greater than 100% represents an increase in the enzyme activity with respect to NCC.

[2] = molecular target: T2, wild-type PAH (Homo sapiens (Human), UniProt P00439); test: as above; settings: compound 10 μM (sepiapterin 5 μM), 48 h
T2 sequence (P00439 whole entry): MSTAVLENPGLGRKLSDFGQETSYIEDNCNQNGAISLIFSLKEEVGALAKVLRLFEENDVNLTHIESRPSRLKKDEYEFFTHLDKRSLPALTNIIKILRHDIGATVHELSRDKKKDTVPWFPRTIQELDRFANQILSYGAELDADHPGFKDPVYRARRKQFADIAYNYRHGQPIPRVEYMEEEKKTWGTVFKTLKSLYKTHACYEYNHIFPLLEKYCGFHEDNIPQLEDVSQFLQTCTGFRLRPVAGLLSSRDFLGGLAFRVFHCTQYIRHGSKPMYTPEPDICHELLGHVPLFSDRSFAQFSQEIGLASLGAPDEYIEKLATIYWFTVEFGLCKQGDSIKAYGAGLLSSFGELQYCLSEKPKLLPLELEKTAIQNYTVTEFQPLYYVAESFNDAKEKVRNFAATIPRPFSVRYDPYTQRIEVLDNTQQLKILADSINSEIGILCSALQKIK
Protocol: as §1, §2, §3, §4

[3] = molecular target: T2, wild-type PAH; test: Phenylalanine hydroxylase residual protein amount (dot blot, COS-7 lysates); settings: COS-7, 48 h, COS-7 cells, compound 10 μM (sepiapterin 5 μM), read-out: PAH protein level (immune blot signal) WT PAH Mean
Protocol: (§5) 3. Phenylalanine Hydroxylase Residual Protein Amount
(§6) The analysis of the residual PAH protein amount was based on the method described in Gersting S. W. et al., Human Molecular Genetics, 2010, 19(10), 2039-2049 with modifications.
(§7) Detection of the residual PAH protein amount was performed as a dot blot using the lysates obtained from the cell culture where transiently transfected COS-7 cells (with wild-type PAH or PAH variant) were exposed for 48 h to compounds. The experiment was carried out from the same samples as used for measuring enzyme activities.
(§8) 2 μl of the lysate were dropped onto the nitrocellulose membrane. The membrane was allowed to air dry at room temperature for 30 min followed by 40 min blocking in 5% milk in TBS-Tween (room temperature). The membrane was incubated with the mouse monoclonal primary antibody specific for PAH (Millipore, Cat. No. MAB5278, 1:1000 dilution in 5% milk in TBS-Tween) for overnight at 4° C. Next, the membrane was washed (3×10 min in TBS-Tween) and incubated with the secondary HRP-conjugated antibody (anti-mouse antibody; Santa Cruz Biotechnology, Inc., Cat. No. sc-2005; 1:1000 dilution in 5% milk in TBS-Tween) followed by thorough washing in TBS-Tween (3×10 min) and distilled water (1×10 min). Blots were visualized with Pierce™ ECL substrate (ThermoFisher Scientific, Cat No. 32106) and chemiluminescence was monitored with a DIANA III Imaging system or ChemiDoc™ MP Imaging System (BioRad). To analyze the compound effect on the PAH protein amount densitometry analysis was performed using ImageJ Software.
(§9) The effect of compound on PAH protein amount was calculated from triplicates. As for determination of the enzyme activity the background of the not transfected cells (NT) was subtracted from the transfected cells (NCC or compound treated). In the next step delta of the NCC versus compound treated cells was calculated. Residual protein amount greater than 100% represents an increase in the stability of the enzyme with respect to NCC.

[4] = molecular target: T1, Arg261Gln (R261Q) PAH; test: as above; settings: COS-7, 48 h, COS-7 cells, compound 10 μM (sepiapterin 5 μM), read-out: PAH protein level (immune blot signal) R261Q PAH Mean
Protocol: as §5, §6, §7, §8, §9

T1 sequence (P00439 whole entry R261Q): as the sequence (P00439 whole entry) above, with R261Q counted along it

Row | PAH enzyme activity (L-Tyrosine formation) R261Q PAH Mean [1] [% NCC] | PAH enzyme activity (L-Tyrosine formation) WT PAH Mean [2] [% NCC] | PAH protein level (% of control) at 10 µM [3] [%] | PAH protein level (% of control) at 10 µM [4] [%] | SMILES
1 | 2089.79 | 297.14 | 106 | – | C[C@H](O)C(=O)C1=Nc2c([nH]c(N)nc2=O)NC1 [Sepiapterin, S-(−)-2-amino-7,8-dihydro-6-(2-hydroxy-1-oxopropyl)-4(1H)-pteridinone]
2 | 531.60 | 284.15 | 108 | 256 | Cc1ccc2[nH]c(N)nc(=O)c2c1Sc1ccncc1 [Nolatrexed 2HCl, 2-amino-6-methyl-5-(4-pyridylthio)-4(3H)-quinazolinone]
3 | 131.23 | 104.71 | – | – | CCN1CCCC1CNC(=O)c1cc(S(=O)(=O)CC)ccc1OC (stereo not drawn) [Sultopride HCl, N-[(1-ethyl-2-pyrrolidinyl)methyl]-5-(ethylsulfonyl)-o-anisamide]
